Laboratory results reported in article PMC8830069, “Metallo-β-Lactamase Inhibitor Phosphonamidate Monoesters” (ACS Omega, 2022).

Legend:
NDM-1 [1] = molecular target: T1, NDM-1 (Klebsiella pneumoniae, UniProt C7C422); assay: 1H,15N HSQC chemical shift titration and 15N-filtered HSQC-NOESY with 15N-labeled NDM-1; assay type: binding
Description: As binding-induced protein NMR chemical shift changes reveal the alteration of the local environment in the vicinity of the monitored nuclei, these are commonly acquired for identification of binding clefts. We monitored the weighted chemical shift changes, Δδ1H,15N, of uniformly ^15N-enriched backbone amide functionalities upon successive additions of the 0–2.370 mM ligand using ^1H,^15N HSQC experiments (Figure 5). Following literature examples,[31] chemical shift perturbations (CSPs) were considered to be significant (SSPs) in case the observed Δδ1H,15N was greater than the population mean plus the standard deviation (μ + 1σ). […] Some minor chemical shift variations were observed upon the addition of the co-solvents, as expected,[34] whereas neither protein precipitation nor alteration of the overall structure of NDM-1 was detected (Figures S3 and S4, Supporting Information). The chemical shift changes of 234 backbone amides were monitored. […]
Additional information about the binding event was obtained from 3D-^15N-filtered HSQC-NOESY (Figure S6, Supporting Information). […] Thus, in a filtered NOE experiment, only intermolecular cross-peaks are detected. […]
For the titrations, two ^15N-labeled NDM-1 (0.25 mM) batches were prepared. […] All experiments were recorded on a Bruker 600 MHz spectrometer at 310 K equipped with a 5 mm TCI cryogenic probe. […]

[2] = Solubility / aggregation in NMR buffer; assay type: physicochemical; settings: 20 mM K3PO4 aqueous buffer solution at pH 7; aggregation was observed
Description: As binding-induced protein NMR chemical shift changes reveal the alteration of the local environment in the vicinity of the monitored nuclei, these are commonly acquired for identification of binding clefts. We monitored the weighted chemical shift changes, Δδ1H,15N, of uniformly ^15N-enriched backbone amide functionalities upon successive additions of the 0–2.370 mM ligand using ^1H,^15N HSQC experiments (Figure 5). Following literature examples,[31] chemical shift perturbations (CSPs) were considered to be significant (SSPs) in case the observed Δδ1H,15N was greater than the population mean plus the standard deviation (μ + 1σ). Such chemical shift changes may directly originate from the interaction or might be indirect and thus be the result of binding-induced conformational changes. Based on its activity against NDM-1 (Table 1) and solubility, 1d was selected for detailed analysis (Figure S2, Supporting Information). […] In order to exclude aggregation of 1d, we also performed additional ^1H,^15N HSQC titration experiments using 5% DMSO or 5% ethanol (EtOH). Some minor chemical shift variations were observed upon the addition of the co-solvents, as expected,[34] whereas neither protein precipitation nor alteration of the overall structure of NDM-1 was detected (Figures S3 and S4, Supporting Information). The chemical shift changes of 234 backbone amides were monitored. […]

NDM-1 [3] = molecular target: T1, NDM-1; assay: MBL inhibition assay, purified NDM-1, imipenem hydrolysis at 300 nm; assay type: biochemical
Description: (§1) The inhibitory activities of 1a–h and 2 against the purified NDM-1, GIM-1, and VIM-2 enzymes were evaluated (IC50 data in Table 1). The inhibitory activity was measured by monitoring nitrocefin hydrolysis for VIM-2 and GIM-1 and that of imipenem for NDM-1[19] at λ 482 and 300 nm, respectively. […] This may indicate that unlike the sulfur of captopril, that of 1a and 2 might not coordinate the zinc ions in the active site. Alternatively, this may be a result of disulfide formation under the conditions of the enzyme assay. The hydrophobic 1f–h precipitated during the enzyme assay and their inhibitory activities could therefore not be reliably measured. This is not unusual as the binding cleft of MBL inhibitors is hydrophobic, and accordingly, their inhibitors typically have poor aqueous solubility.[20] The inhibitors may be solubilized by careful dilution of dimethylsulfoxide (DMSO) stock solutions; however, this was not successful for compounds 1f–h.
(§2) The inhibitory activity (IC50) of 1a–h was studied against the MBL enzymes NDM-1, GIM-1, and VIM-2. The buffer used for the studies contained 50 mM HEPES at pH 7.2, 10 μM ZnSO4, 2.5% DMSO, and 0.4 mg/mL bovine serum albumin, used as a prevention of protein unfolding and loss of activity. The enzyme concentration of NDM-1 was 10 nM, of GIM-1 1 nM, and of VIM-2 100 pM. The inhibitors were dissolved in 100% DMSO, and a twofold dilution series was made with a final 2.5% DMSO in the assay. The highest inhibitor concentration was 800 μM. The reporter substrate for VIM-2 and GIM-1 was nitrocefin, while for NDM-1 imipenem, and their absorbance (concentration) was followed at the wavelengths 482 and 300 nm, respectively. L-Captopril and EDTA-Na were used as positive and water and DMSO as negative controls. Measurements were read for 30 min at 298 K.

in vitro = assay type: cell-based; settings: human; cell viability after 24 hours incubation, at least two independent experiments; read-out: Cytotoxicity IC50 in HeLa cells
Description: The cytotoxicity of phosphonamidate monoesters was evaluated against HeLa cells (ATCC-CCL-2), which were maintained in Dulbecco’s modified Eagle medium (Thermo Fisher Scientific) supplemented with 10% (v/v) fetal bovine serum (Thermo Fisher Scientific), penicillin (100 units/mL), and streptomycin (100 μg/mL, both from Sigma) at 37 °C, 5% CO2. Cells were seeded in 96-well plates (Corning, Merck) at 20 × 10^3 cells/well and incubated for 24 h (37 °C, 5% CO2). Stock solutions of the compounds were prepared at 150 mM in DMSO (Sigma), and the cells were exposed to a serial dilution and incubated for 24 h. Subsequently, the cells were washed twice with culture medium, and the PrestoBlue reagent (Thermo Fischer Scientific) was directly added to the cells for cell viability determination (1:10 dilution in culture medium). Following recommended incubation times (manufacturer’s instructions), fluorescence was measured using a Spark plate reader (Tecan, Austria) at Ex/Em 560/590 nm and corrected for background fluorescence by including control wells containing only cell culture media (no cells). Data analysis was performed using GraphPad Prism 9.0.0 (GraphPad Software, USA). At least two independent experiments were performed.
Figure S1. Cytotoxicity dose-response curves of phosphonamidate monoesters as determined in HeLa cells. The cells were treated with the compounds at the indicated concentrations, and cell viability was measured after 24 hours incubation. The following IC50 values wer e determined to be (A) 69. 2 µM (SD = 1.0) for KAT -A-109-H2, (B) 201.4 µM (SD = 4.4) for KAT -A-102-H1 and (C) 90.7 µM (SD = 1.0) for KAT -A-118-H1. All remaining compounds (D - H) had IC50 values above 500 µM. Data is shown as mean ± SD of at least two independent experiments.
*A 1h, B 1e, C 1f, D 1a, E 1b, F 1d, G 1c. […]

GIM-1 = GIM-1 (Pseudomonas aeruginosa, UniProt Q704V1); assay: MBL inhibition assay, purified GIM-1, nitrocefin hydrolysis at 482 nm; assay type: biochemical; settings: nitrocefin reporter substrate, 1 nM enzyme, 2.5% DMSO, highest inhibitor concentration 800 μM; N.I. and P. not defined
Description: as §1, §2

VIM-2 = VIM-2 (Escherichia coli, UniProt Q5U7L7); assay: MBL inhibition assay, purified VIM-2, nitrocefin hydrolysis at 482 nm; assay type: biochemical; settings: nitrocefin reporter substrate, 100 pM enzyme, 2.5% DMSO, highest inhibitor concentration 800 μM; N.I. and P. not defined
Description: as §1, §2

T1 sequence (C7C422 29-270 limits assumed): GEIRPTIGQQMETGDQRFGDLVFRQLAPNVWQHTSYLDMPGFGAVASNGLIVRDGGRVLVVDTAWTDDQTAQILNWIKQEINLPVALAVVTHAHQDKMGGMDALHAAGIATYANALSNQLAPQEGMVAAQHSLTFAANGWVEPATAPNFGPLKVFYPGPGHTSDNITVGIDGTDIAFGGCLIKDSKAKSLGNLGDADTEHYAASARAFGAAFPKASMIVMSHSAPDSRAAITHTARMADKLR
GIM-1, sequence (Q704V1 entry or part of it): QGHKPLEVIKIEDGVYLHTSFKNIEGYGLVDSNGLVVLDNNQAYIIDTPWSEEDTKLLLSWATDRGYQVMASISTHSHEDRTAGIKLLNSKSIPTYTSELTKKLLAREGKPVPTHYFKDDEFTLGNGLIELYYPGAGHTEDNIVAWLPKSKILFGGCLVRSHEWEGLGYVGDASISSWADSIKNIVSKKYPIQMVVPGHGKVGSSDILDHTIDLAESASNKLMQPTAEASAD

COP(=O)(CCSC(C)=O)N(Cc1ccccn1)Cc1ccccn1 (racemic) [1d, (R/S)-(2-((Bis(pyridin-2-ylmethyl)amino) (methoxy)phosphoryl)ethyl) Ethanethioate]
Enzymatic modification of the structure by NDM-1 during the NMR studies (NDM-1 [1]): no sign for enzymatic modification | Binding to NDM-1 by chemical shift perturbation (NDM-1 [1]; 0.25 mM 15N-labeled NDM-1, up to 1:10 protein/ligand, 310 K): specific binding | Solubility [2]: limited solubility | IC50 (NDM-1 [3]): 430 µM | IC50 (in vitro): > 500 µM | IC50 against purified GIM-1 (GIM-1): N.I. | IC50 against purified VIM-2 (VIM-2): N.I.
